What was measured:
Saos2 cells = experiment: MTT assay, Saos2 cells; assay type: cell-based, human; details: Saos2, 2 h, presence or absence of DQB (20 μM)
Procedure: (§1) Cell Culture: Saos2, SJSA1 and HepG2 cells were purchased from American Type Culture Collection (ATCC, USA). Saos2 cells were cultured in McCoy's 5A Medium (Gibco, Life Technologies) supplemented with 15% (v/v) fetal bovine serum (FBS) (Gibco, Life Technologies), 100 U/mL penicillin and 100 µg/mL streptomycin (Gibco, Life Technologies); SJSA1 cell were culture in RPMI1640 (ATCC, USA) Medium supplemented with 10% (v/v) FBS, 100 U/mL penicillin and 100 µg/mL streptomycin; HepG2 cells were cultured in Minimal Essential Medium (MEM) (Gibco, Life Technologies) supplemented with 10% (v/v) FBS, 100 U/mL penicillin and 100 µg/mL streptomycin. All the cells were maintained at 37° C. in a humidified atmosphere of 5% CO2.
(§2) MTT Assay: Cells were seeded in 96-well plates at 1×10^4 cells/well for 24 hours to allow attachment. After removing the culture medium, fresh culture medium containing different concentration of the precursors were added. After 24/48/72 hours, 10 μL MTT (ACROS Organics) solution (5 mg/mL) was added to each well to incubate at 37° C. for 4 h. 100 μL of SDS-HCl solution was then added to stop the reduction reaction and dissolve the formazan. The absorbance of each well at 595 nm was measured by a DTX880 Multimode Detector. The results were calculated as cell viability percentage relative to untreated cells. […]

SJSA1 cells = experiment: MTT assay, SJSA1 cells; assay type: cell-based, human; details: SJSA1, 2 h, presence or absence of DQB (20 μM)
Procedure: as §1
as §2, with “After 24/48/72 hours, 10 μL MTT (ACROS Organics) solution (5 mg/mL) was added to each well to incubate at 37° C. for 4 h.” left out, “cells. The MTT assay was performed in triplet (n=3) and the average value of the three measurements was taken.” for “cells.”

[1] = hydrophobicity of the aromatic group; cited from earlier work
[2] = Solubility in PBS buffer / water; assay type: physicochemical; details: compared with 6

## COC(=O)CC[C@@H](NC(=O)[C@@H](Cc1ccccc1)NC(=O)[C@@H](Cc1ccccc1)NC(=O)c1ccc(-c2ccc(OP(=O)(O)O)cc2)cc1)C(=O)OC [9P]
Saos2 cells
  cytotoxicity compared to 10P (cell viability): higher cytotoxicity
SJSA1 cells
  cytotoxicity compared to 10P (cell viability): higher cytotoxicity

## c1ccc(-c2ccccc2)cc1 [biphenyl]
[1]
  log P: 3.71

## O=C(N[C@H](Cc1ccccc1)C(=O)N[C@H](Cc1ccccc1)C(=O)O)c1ccc(O)cc1 [compound 2, B-ff]
[2]
  relative water solubility: more water soluble than 6

## O=C(N[C@H](Cc1ccccc1)C(=O)N[C@H](Cc1ccccc1)C(=O)O)c1ccc2cc(O)ccc2c1 [compound 4, NP-ff]
[2]
  relative water solubility: more water soluble than 6
